Here are results for two compounds from US12091683B2, “Method for producing platelets, method for producing platelet product, and method for producing blood product” (MEGAKARYON CORPORATION, priority 2017, dated 2024).

The subject of test [1] is platelets produced from immortalized megakaryocyte cell lines (SeV2-MKCL). The test is described as follows: Bioactivity of platelets produced, MFIs of CD62p and PAC-1 by flow cytometer. In kind it is cell-based, human. How it is done: The bioactivity of platelets obtained in Example 1(2) was measured using a flow cytometer. Specifically, 900 μL of diluent was added to a 1.5-mL microtube, and 100 μL of culture solution after platelet production was added and mixed. Then, 200 μL of obtained solution was poured into a FACS tube, stained by adding the labeled antibody shown below, and the MFIs of CD62p and PAC-1 in platelets were analyzed using the flow cytometer. The same analysis was also performed using the flow cytometer in NC, and then the increase percentage of the MFIs of CD62p and PAC-1 in the respective samples were calculated with reference to the MFIs of CD62p and PAC-1 in NC.
FIGS. 2A and 2B are graphs each showing the increase percentage of MFIs of CD62p and PAC-1. […] In addition, the expression levels of CD62p and PAC-1 were increased in a concentration-dependent manner.
The increase percentages of MFIs of CD62p and PAC-1 were calculated in the same manner as in Example 1(3) except that platelet was produced using a platelet production medium being added with cysteine at a predetermined concentration (1, 5, or 10 mmol/L) instead of glycine. The platelet production medium contains 0.6 to 0.8 mmol/L cysteine. Therefore, the concentration of the cysteine in the platelet production medium after being added with cysteine are about 2 to about 11 mmol/L. As a control, the increase percentage of MFIs of CD62p and PAC-1 was calculated in the same manner except that no cysteine was added.
A general note: A flow cytometer gives signals particle by particle.

Test [2] relates to immortalized megakaryocyte cell line from human iPS cells (NIH5). The note with it: 4.0×10^5 (×4) or 6.0×10^5 cells/mL (×6), 5 days, glycine added, compared with control in high-density culture, FIG. 6A. As to the method: (§1) Immortalized megakaryocyte cell lines were induced in the same manner as in Examples 1(1-1) to (1-6) except that human iPS cells (NIH5 and NIH8) were used instead of the human iPS cells (TKDN SeV2). As to the obtained immortalized megakaryocyte cell line, the number of platelets was counted and the platelet concentration was calculated in the same manner as in Example 1(2) except that the cell dissemination density was set to 4.0×10^5 cells/mL (×4) or 6.0×10^5 cells/mL (×6) and the culture was performed for 5 days. As a control, the platelet concentration was calculated in the same manner except that the cell dissemination density was set to 1.0×10^5 cells/mL (×1), 4.0×10^5 cells/mL (×4), or 6.0×10^5 cells/mL (×6), and the glycine-non-added platelet production medium was used.
(§2) FIGS. 6A and 6B are graphs each showing the platelet concentration. […] In FIGS. 6A and 6B, the horizontal axis indicates the condition of cell dissemination density and glycine concentration, and the vertical axis indicates the platelet concentration.

For test [3], the system named is immortalized megakaryocyte cell line from human iPS cells (NIH8). The note with it: 4.0×10^5 (×4) or 6.0×10^5 cells/mL (×6), 5 days, glycine added, compared with control in high-density culture, FIG. 6B. How it is done:
as §1, §2

The subject of test [4] is immortalized megakaryocyte cell lines (SeV2-MKCL).
From the text: The forced expression was canceled by performing culturing in a medium not containing DOX. Specifically, the immortalized megakaryocyte cell lines (SeV2-MKCL) obtained using the method (1) were washed twice with PBS (−), and suspended in a following platelet producing medium. The cell dissemination density was set to 4.0×10^5 cells/mL (×4).
The platelet producing medium was obtained by adding the components listed below to a basal medium IMDM (concentration means final concentration).
Test [5] deals with platelets produced from immortalized megakaryocyte cell lines (SeV2-MKCL). Conditions: 10 mmol/L glycine and 20 U/mL heparin added; dissemination density ×1, ×2, ×3, ×4, ×8; compared with controls; FIG. 3.
Method: In addition, the deterioration state of platelets obtained was evaluated based on the positive rate of Annexin V. Specifically, in measurement of the Annexin V positive rate in platelets, 100 μL of the culture solution after platelet production was poured into a FACS tube, and the solution was stained by adding the following labeled antibody and protein, diluted to 5 times with an Annexin V binding buffer (BD Biosciences) immediately before flow cytometer analysis, and then subjected to analysis.
1.0 μL anti-CD41a antibody APC label (Bio Legend 303710)
1.0 μL anti-CD42b antibody PE label (Bio Legend 303906)
5 μL Annexin V FITC label (BD Biosciences 556419)
Test [6] deals with immortalized megakaryocyte cell line from iPS cells induced from SeV2-MKCL. Conditions: high-density culture (×4), compared with control in high-density culture.
From the text: iPS cells were induced by introducing c-MYC, OCT3/4, SOX2, and KLF4 into immortalized megakaryocyte cell line (SeV2-MKCL) obtained in Example 1(1-6) by the Sendai virus vector according to the method described in WO 2010/134526. Next, immortalized megakaryocyte cell lines were induced in the same manner as in Examples 1(1-1) to (1-6) except that the induced iPS cells were used instead of the human iPS cells (TKDN SeV2). Further, as to the obtained immortalized megakaryocyte cell line, the number of platelets was counted and the platelet concentration was calculated in the same manner as in Example 1(2). Then, the P/M ratio was calculated based on the megakaryocyte cell density (dissemination density) at the start of production of platelets and the platelet concentration.
The mark [7] stands for this setting: high-density culture (×4), added glycine 5, 10, 20, 40 mmol/L, compared to control without glycine, FIGS. 2A, 2B.
The mark [8] stands for this setting: high-density culture, added cysteine 1, 5 or 10 mmol/L, compared to control (NC) without cysteine, FIG. 4.

In the case of `NCC(=O)O` [glycine], the “expression level of CD62p (increase percentage of MFI)” value in test [1] (setting [7]) is on record as “increased at all glycine concentrations”. Also, the “expression level of PAC-1 (increase percentage of MFI)” value in test [1] (setting [7]) is listed as “increased at all glycine concentrations”. Further, the platelet concentration result is given as “increased at any dissemination density” in test [2], “increased at any dissemination density” in test [3] and “increased at any glycine concentration” in test [6] (FIG. 5B). For the same compound, the number of platelets entry in test [4] (4.0×10^5 cells/mL (×4), added glycine 1, 5, 10, 20 or 40 mmol/L, 6 days, compared with high-density culture using glycine-non-added medium, FIGS. 1A, 1B) is “increased at all concentrations”; in test [5], “increased”. Also, the “ability of megakaryocyte to produce platelets” value in test [4] (glycine concentration at the start of production of platelets 11 to 31 mmol/L or 11 to 21 mmol/L, high-density culture (×4)) is reported as “further improved”. The “deterioration of platelet (percentage of Annexin V-positive cells)” value in test [5] is given as “suppressed”. The “ability of megakaryocyte to produce platelets (P/M ratio)” value in test [6] (any glycine concentration, FIG. 5A) is recorded as “improved”.

On to `N[C@@H](CS)C(=O)O` [cysteine], for which, in test [1] (setting [8]), the “expression level of CD62p (increase percentage of MFI)” value is “increased at all cysteine concentrations” and the “expression level of PAC-1 (increase percentage of MFI)” value is “increased at all cysteine concentrations”.
